How the values were obtained:
[1] = target: T1, rat SGLT2 (Rattus norvegicus, UniProt P53792); assay: Inhibition of radiolabeled α-MG uptake into COS-7 cells transfected with rat SGLT2 (Dixon plot); assay type: cell-based; settings: α-MG 0.3 and 1 mM
T1 construct: expressed in transfected cells; host or cells: COS-7
T1 sequence (P53792 1-670): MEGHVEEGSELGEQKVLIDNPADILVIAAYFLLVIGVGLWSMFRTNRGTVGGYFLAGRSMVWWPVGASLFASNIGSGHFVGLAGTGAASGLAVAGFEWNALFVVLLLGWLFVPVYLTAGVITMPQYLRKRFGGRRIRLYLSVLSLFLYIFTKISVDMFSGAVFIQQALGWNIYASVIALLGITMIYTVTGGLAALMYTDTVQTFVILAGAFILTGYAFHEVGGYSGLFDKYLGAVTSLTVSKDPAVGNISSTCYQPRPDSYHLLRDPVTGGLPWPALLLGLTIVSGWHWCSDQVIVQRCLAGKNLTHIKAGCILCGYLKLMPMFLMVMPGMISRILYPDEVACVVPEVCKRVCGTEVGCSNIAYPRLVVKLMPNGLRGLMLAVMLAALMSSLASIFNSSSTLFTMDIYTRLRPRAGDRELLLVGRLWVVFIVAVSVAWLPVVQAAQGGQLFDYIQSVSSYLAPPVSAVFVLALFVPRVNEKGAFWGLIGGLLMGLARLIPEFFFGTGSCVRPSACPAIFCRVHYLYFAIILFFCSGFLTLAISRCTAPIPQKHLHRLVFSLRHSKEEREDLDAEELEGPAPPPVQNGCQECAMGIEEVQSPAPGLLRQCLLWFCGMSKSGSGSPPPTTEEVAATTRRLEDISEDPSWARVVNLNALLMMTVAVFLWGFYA
Experimental: Selective inhibition study. Inhibition constants (Ki) of mizagliflozin for rat and human SGLT1 and SGLT2 were determined measuring concentration-dependent effects of test compound on uptake of radiolabeled methyl-α-D-glucopyranoside (α-MG) into COS-7 cells transiently transfected with cloned SGLT1 or SGLT2. Mizagliflozin was assessed at concentrations from 1 to 30 μM and 3 to 100 μM for human and rat SGLT2, respectively. It was assessed at concentrations from 30 nM to 1 μM and 10 to 30 nM for human and rat SGLT1, respectively. α-MG test concentrations were 0.3 and 1 mM. Data were analyzed and Ki determined using Dixon plots of initial transport rates. […] Inhibition constants were also determined for human SGLT1 and SGLT2.

[2] = tested on: normal Sprague Dawley rats; assay: Mixed carbohydrate tolerance test in normal rats; assay type: in vivo, rat
Experimental: Study on normal rats. The efficacy of mizagliflozin (decreasing plasma glucose levels) in normal Sprague Dawley rats was determined in a mixed carbohydrate tolerance test. Normal rats were fasted for 16 hours and then given an oral loading dose of 2.0 g/kg of mixed carbohydrate (soluble starch:sucrose:lactose monohydrate=6:3:1). Mizagliflozin (KGA-3235 sebacate), or water as the vehicle control, was then administered as a single oral dose to groups of male rats (n=8/group) at doses of 0.03, 0.1, 0.3, and 1 mg/kg. Voglibose, a glucosidase inhibitor similar to acarbose, was used as a positive control and was administered as a single oral dose to male rats (n=8/group) at dose levels of 0.1, 0.3 and 1 mg/kg. Blood samples were collected just prior to loading with mixed carbohydrate and at 0.5, 1, 2, 3, 4, and 6 hours after loading.

[3] = tested on: STZ-induced diabetic rats; assay: Mixed carbohydrate tolerance test in STZ-induced diabetic rats (Example 3); assay type: in vivo, rat; settings: mixed carbohydrate 2.0 g/kg
Experimental: Study in diabetic rats. Mizagliflozin was tested in a rat model for diabetes and efficacy, as measured by a relative decrease in plasma glucose, was determined using a mixed carbohydrate tolerance test. Diabetic model rats were prepared by intravenous administration of streptozotocin (STZ) to induce diabetes. Seven days after STZ administration, rats were fasted for 16 hours and then given an oral loading dose of 2.0 g/kg of mixed carbohydrate (soluble starch:sucrose:lactose monohydrate=6:3:1). Mizagliflozin, or water as the vehicle control, was then administered as a single oral dose to groups of male rats (n=8/group) at doses of 0.01, 0.03, 0.1, and 0.3 mg/kg. Another control group was given vehicle and consisted of normal male Sprague Dawley rats that were not administered STZ. Voglibose was also administered as a single oral dose to male rats (n=8/group) at dose levels of 0.03, 0.1 and 0.3 mg/kg. Blood samples were collected just prior to loading with mixed carbohydrate and at 0.5, 1, 2, 3, 4, and 6 hours after loading. Plasma glucose concentrations were determined and ΔAUC0-1 h for plasma glucose was calculated.

[4] = tested on: STZ-induced diabetic rats; assay: Oral glucose tolerance test in STZ-induced diabetic rats (Example 4); assay type: in vivo, rat
Experimental: Study in diabetic rats using oral glucose tolerance test. Efficacy of mizagliflozin was tested in a rat model for diabetes using an oral glucose tolerance test (OGTT). Diabetic model rats were prepared by intravenous administration of STZ to induce diabetes. Seven days after STZ administration, rats were fasted for 16 hours and then given an oral loading dose of 2.0 g/kg of glucose. Mizagliflozin, or water as the vehicle control, was then administered as a single oral dose to groups of male rats (n=8/group) at doses of 0.03, 0.1, 0.3, and 1 mg/kg. Another control group was given vehicle and consisted of normal male Sprague Dawley rats that were not administrated STZ. Voglibose was also administered as a single oral dose to male rats (n=8/group) at dose levels of 0.1, 0.3 and 1 mg/kg. Blood samples were collected just prior to loading with mixed carbohydrate and at 0.5, 1, 2, 3, 4, and 6 hours after loading. Plasma glucose concentrations were determined and ΔAUC0-1 h for plasma glucose was calculated.

Row | Structure (SMILES) | Ki [1] | ED50 ([2]; Rattus norvegicus, read-out: ED50 calculated from mean ΔAUC0-1 h (% of control), mixed carbohydrate 2.0 g/kg, single oral dose) | ΔAUC0-1 h of plasma glucose versus vehicle control ([2]; mixed carbohydrate 2.0 g/kg) | ΔAUC0-1 h of plasma glucose versus vehicle control [3] | ΔAUC0-1 h relative to control group ([4]; OGTT, maximum dose 1 mg/kg) | ΔAUC0-1 h of plasma glucose versus vehicle control ([4]; glucose 2.0 g/kg)
1 | O=C(CCc1ccc(O)cc1)c1c(O)cc(O)cc1O[C@@H]1O[C@H](CO)[C@@H](O)[C@H](O)[C@H]1O [phlorizin, reference compound] | 41.1 nM |  |  |  |  | 
2 | OCC(CO)N[C@H]1C[C@](O)(CO)[C@@H](O)[C@H](O)[C@H]1O [voglibose, reference compound] |  | 0.32 mg/kg | significant decrease | significant decrease | not half or less than half that in the control group | significant decrease
